Test results taken from ChEMBL document CHEMBL1152535, “Synthesis of branched 9-[2-(2-phosphonoethoxy)ethyl]purines as a new class of acyclic nucleoside phosphonates which inhibit Plasmodium falciparum hypoxanthine-guanine-xanthine phosphoribosyltransferase” (Bioorg Med Chem, 2009).

Experiments:
[1] = biological target: T1, Hypoxanthine-guanine phosphoribosyltransferase (Homo sapiens, UniProt P00492); test: Inhibition of human recombinant HGPRT expressed in Escherichia coli by spectrophotometric assay
T1 sequence (P00492 whole entry): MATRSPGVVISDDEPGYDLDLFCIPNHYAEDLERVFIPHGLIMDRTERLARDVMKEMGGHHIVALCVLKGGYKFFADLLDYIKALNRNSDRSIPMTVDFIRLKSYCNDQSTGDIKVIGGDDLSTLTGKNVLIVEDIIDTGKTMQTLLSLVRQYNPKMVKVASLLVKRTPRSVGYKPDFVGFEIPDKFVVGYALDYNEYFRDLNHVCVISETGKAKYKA

[2] = Inhibition of Plasmodium falciparum recombinant HGXPRT expressed in Escherichia coli by spectrophotometric assay
[3] = Selectivity ratio of Ki for human recombinant HGPRT to Ki for Plasmodium falciparum recombinant HGXPRT

| Ki [1] [µM] | Ratio Ki [3] | SMILES | Ki [2] [µM] |
| --- | --- | --- | --- |
| 2 | 0.2 | CC(CP(=O)(O)O)OCCn1cnc2c(=O)[nH]cnc21 (configuration not stated) | 10 |
| 10 | 0.15 | CCC(CP(=O)(O)O)OCCn1cnc2c(=O)[nH]cnc21 (configuration not stated) | 69 |
| 0.1 | 0.1 | CC(CP(=O)(O)O)OCCn1cnc2c(=O)[nH]c(N)nc21 (configuration not stated) | 1 |
| 0.3 | 0.06 | CCC(CP(=O)(O)O)OCCn1cnc2c(=O)[nH]c(N)nc21 (configuration not stated) | 5 |
